Results published in patent US8916551B2, “Heterocyclic compound and use thereof” (Takeda Pharmaceutical Company Limited, priority 2010, dated 2014).

Legend:
[1] = molecular target: T1, AMPA receptor (human GluR1 flip/stargazin expressed in CHO-K1 cells) (Homo sapiens, UniProt P42261); experiment: AMPA receptor function enhancing activity using calcium influx as index; format: cell-based; conditions: test compound 30 μM with glutamic acid final 3 mM, change in fluorescence in 3 min, 100% = 3 mM glutamic acid + 300 μM cyclothiazide, 0% = 3 mM glutamic acid only
T1 construct: expressed in transfected cells; host or cells: CHO-K1
T1 sequence (P42261 19-906 isoform P42261-2 limits assumed): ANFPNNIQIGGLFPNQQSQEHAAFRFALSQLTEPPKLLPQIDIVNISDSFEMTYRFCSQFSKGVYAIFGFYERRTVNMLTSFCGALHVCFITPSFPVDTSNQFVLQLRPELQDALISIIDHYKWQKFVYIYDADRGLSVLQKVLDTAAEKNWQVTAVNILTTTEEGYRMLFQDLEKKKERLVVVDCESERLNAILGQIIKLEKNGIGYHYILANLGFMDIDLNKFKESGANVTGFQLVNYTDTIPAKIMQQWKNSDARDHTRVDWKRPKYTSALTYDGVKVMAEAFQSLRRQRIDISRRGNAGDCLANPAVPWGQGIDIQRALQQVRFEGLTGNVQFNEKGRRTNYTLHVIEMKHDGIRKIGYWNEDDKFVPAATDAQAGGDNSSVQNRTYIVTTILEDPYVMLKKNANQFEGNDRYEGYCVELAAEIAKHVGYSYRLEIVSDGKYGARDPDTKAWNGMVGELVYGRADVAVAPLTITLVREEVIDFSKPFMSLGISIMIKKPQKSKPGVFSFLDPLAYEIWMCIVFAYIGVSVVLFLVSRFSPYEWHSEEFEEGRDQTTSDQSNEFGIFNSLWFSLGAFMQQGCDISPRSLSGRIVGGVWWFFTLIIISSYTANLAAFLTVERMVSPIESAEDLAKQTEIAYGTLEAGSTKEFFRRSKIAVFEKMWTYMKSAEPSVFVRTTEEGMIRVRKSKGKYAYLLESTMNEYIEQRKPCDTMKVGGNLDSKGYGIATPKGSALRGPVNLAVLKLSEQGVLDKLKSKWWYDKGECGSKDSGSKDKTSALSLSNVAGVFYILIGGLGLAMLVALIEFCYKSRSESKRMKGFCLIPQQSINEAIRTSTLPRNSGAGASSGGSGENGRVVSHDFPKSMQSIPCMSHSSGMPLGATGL
T1 sequence (Q9Y698 whole entry partner): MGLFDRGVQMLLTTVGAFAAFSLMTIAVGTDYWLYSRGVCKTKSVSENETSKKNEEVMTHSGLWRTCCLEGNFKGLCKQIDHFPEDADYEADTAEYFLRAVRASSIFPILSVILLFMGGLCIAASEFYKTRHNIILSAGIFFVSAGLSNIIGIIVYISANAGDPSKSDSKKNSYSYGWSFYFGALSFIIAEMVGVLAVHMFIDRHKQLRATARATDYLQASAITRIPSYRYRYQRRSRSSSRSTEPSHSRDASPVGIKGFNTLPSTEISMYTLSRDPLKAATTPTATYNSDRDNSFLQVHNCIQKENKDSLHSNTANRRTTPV
In short: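 CHO-K1 clone stably co-expressing human GluR1 flip and stargazin, loaded with Calcium 4 dye plus probenecid. Compound at 30 μM was added with glutamate (3 mM final) and fluorescence change followed over 3 min. Activity is expressed as % of the 3 mM glutamate plus 300 μM cyclothiazide response, with glutamate alone as 0%.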

| SMILES | activity (%) [1] [%] | melting point [°C] |
| --- | --- | --- |
| O=S1(=O)CCN2C=CC=C(c3ccc(-c4ccccc4)cc3)C2=N1 [Example 14, 9-biphenyl-4-yl-3,4-dihydropyrido[2,1-c][1,2,4]thiadiazine 2,2-dioxide] | 78 | 315 to 316 |
| CC(C)c1ccc(C2=CC=CN3CCS(=O)(=O)N=C23)cc1 [Example 23, 9-[4-(1-methylethyl)phenyl]-3,4-dihydropyrido[2,1-c][1,2,4]thiadiazine 2,2-dioxide] | 104 | 239 to 241 |
| CC(C)c1ccc(C#CC2=CC=CN3CCS(=O)(=O)N=C23)cc1 [Example 26, 9-{[4-(1-methylethyl)phenyl]ethynyl}-3,4-dihydropyrido[2,1-c][1,2,4]thiadiazine 2,2-dioxide] | 87 | 258 to 262 |
| O=S1(=O)CCN2CCCC(c3ccc(-c4ccccc4)cc3)C2=N1 (stereo not drawn) [Example 28, 9-biphenyl-4-yl-3,4,6,7,8,9-hexahydropyrido[2,1-c][1,2,4]thiadiazine 2,2-dioxide] | 80 | 238 to 239 |
| O=S1(=O)CCN2C=CC=C(c3ccc(Oc4ccccc4)cc3)C2=N1 [Example 31, 9-(4-phenoxyphenyl)-3,4-dihydropyrido[2,1-c][1,2,4]thiadiazine 2,2-dioxide] | 79 | 252 to 253 |
| O=S1(=O)CCN2C=CC=C(c3ccc(OC(F)(F)F)cc3)C2=N1 [Example 34, 9-[4-(trifluoromethoxy)phenyl]-3,4-dihydropyrido[2,1-c][1,2,4]thiadiazine 2,2-dioxide] | 78 | 249 to 251 |
| CC(C)Oc1ccc(C2CCCN3CCS(=O)(=O)N=C23)cc1 (stereo not drawn) [Example 40, 9-[4-(1-methylethoxy)phenyl]-3,4,6,7,8,9-hexahydropyrido[2,1-c][1,2,4]thiadiazine 2,2-dioxide] | – | 191 to 192 |
| O=S1(=O)CCN2CCCC(c3ccc(OC(F)(F)F)cc3)C2=N1 (stereo not drawn) [Example 41, 9-[4-(trifluoromethoxy)phenyl]-3,4,6,7,8,9-hexahydropyrido[2,1-c][1,2,4]thiadiazine 2,2-dioxide] | – | 207 to 208 |
| CC(C)c1ccc(C2CCCN3CCS(=O)(=O)N=C23)cc1 (stereo not drawn) [Example 42, 9-[4-(1-methylethyl)phenyl]-3,4,6,7,8,9-hexahydropyrido[2,1-c][1,2,4]thiadiazine 2,2-dioxide] | – | 198 to 203 |
| O=S1(=O)CCN2C=CC=C(c3ccc(-c4ccccc4)s3)C2=N1 [Example 50, 9-(5-phenylthiophen-2-yl)-3,4-dihydropyrido[2,1-c][1,2,4]thiadiazine 2,2-dioxide] | – | 241 to 242 |
| COc1ccc2ccc(OC3=CC=CN4CCS(=O)(=O)N=C34)cc2c1 [Example 59, 9-[(7-methoxynaphthalen-2-yl)oxy]-3,4-dihydropyrido[2,1-c][1,2,4]thiadiazine 2,2-dioxide] | 72 | 235 to 237 |
| CC(C)c1ccc(OCC2=CC=CN3CCS(=O)(=O)N=C23)cc1 [Example 61, 9-{[4-(1-methylethyl)phenoxy]methyl}-3,4-dihydropyrido[2,1-c][1,2,4]thiadiazine 2,2-dioxide] | 75 | 212 to 214 |
| O=S1(=O)CCN2CCC[C@H](c3ccc(Oc4ccccc4)cc3)C2=N1 [Example 62, (9R)-9-(4-phenoxyphenyl)-3,4,6,7,8,9-hexahydropyrido[2,1-c][1,2,4]thiadiazine 2,2-dioxide] | – | 171 to 176 |
| O=S1(=O)CCN2CCC[C@@H](c3ccc(Oc4ccccc4)cc3)C2=N1 [Example 63, (9S)-9-(4-phenoxyphenyl)-3,4,6,7,8,9-hexahydropyrido[2,1-c][1,2,4]thiadiazine 2,2-dioxide] | 77 | 174 to 175 |
| O=S1(=O)CCN2CCCC(c3ccc(-c4ccccc4)cc3)C2=N1 (stereo not drawn) [Example 64, 9-biphenyl-4-yl-3,4,6,7,8,9-hexahydropyrido[2,1-c][1,2,4]thiadiazine 2,2-dioxide] | 73 | 220 to 222 |
| O=S1(=O)CCN2CCCC(c3ccc(-c4ccccc4)cc3)C2=N1 (stereo not drawn) [Example 65, 9-biphenyl-4-yl-3,4,6,7,8,9-hexahydropyrido[2,1-c][1,2,4]thiadiazine 2,2-dioxide] | 78 | 224 to 227 |
| O=S1(=O)CCN2C=CC=C(c3ccc(OC4CCCC4)cc3)C2=N1 [Example 66, 9-[4-(cyclopentyloxy)phenyl]-3,4-dihydropyrido[2,1-c][1,2,4]thiadiazine 2,2-dioxide] | – | 254 to 256 |
| CC(C)(C)COc1ccc(C2=CC=CN3CCS(=O)(=O)N=C23)cc1 [Example 67, 9-[4-(2,2-dimethylpropoxy)phenyl]-3,4-dihydropyrido[2,1-c][1,2,4]thiadiazine 2,2-dioxide] | 68 | 258 to 259 |

| SMILES | activity (%) [1] [%] | melting point [°C] |
| --- | --- | --- |
| O=S1(=O)CCN2C=CN=C(c3ccc(OC4CCCCC4)cc3)C2=N1 [Example 68, 9-[4-(cyclohexyloxy)phenyl]-3,4-dihydropyrazino[2,1-c][1,2,4]thiadiazine 2,2-dioxide] | 77 | 239 to 240 |
| O=S1(=O)CCN2C=CC=C(c3ccc(OCC4CCCC4)cc3)C2=N1 [Example 74, 9-[4-(cyclopentylmethoxy)phenyl]-3,4-dihydropyrido[2,1-c][1,2,4]thiadiazine 2,2-dioxide] | – | 258 to 259 |
| O=S1(=O)CCN2C=C(Cl)C=C(c3ccc(Oc4cc(C(F)(F)F)ccn4)cc3)C2=N1 [Example 76, 7-chloro-9-(4-{[4-(trifluoromethyl)pyridin-2-yl]oxy}phenyl)-3,4-dihydropyrido[2,1-c][1,2,4]thiadiazine 2,2-dioxide] | – | 238 to 239 |
| O=S1(=O)CCN2CCCC(c3ccc(Oc4ccc(Cl)cc4)cc3)C2=N1 (stereo not drawn) [Example 150, 9-[4-(4-chlorophenoxy)phenyl]-3,4,6,7,8,9-hexahydropyrido[2,1-c][1,2,4]thiadiazine 2,2-dioxide] | – | 183 to 185 |
| O=S1(=O)CCN2C=CC=C(c3ccc(OC4CCCCC4)cc3)C2=N1 [Example 165, 9-[4-(cyclohexyloxy)phenyl]-3,4-dihydropyrido[2,1-c][1,2,4]thiadiazine 2,2-dioxide] | – | 275 to 277 |
| O=S1(=O)CCN2C=CC=C(c3ccc(Oc4ccccc4)cc3)C2=N1 [Example 166, 9-(4-phenoxyphenyl)-3,4-dihydropyrido[2,1-c][1,2,4]thiadiazine 2,2-dioxide] | – | 251 to 252 |
| O=S1(=O)CCN2C=CC=C(c3ccc(Oc4ccccc4)cc3)C2=N1 [Example 167, 9-(4-phenoxyphenyl)-3,4-dihydropyrido[2,1-c][1,2,4]thiadiazine 2,2-dioxide] | – | 253 to 255 |
| Cc1ccc(Oc2ccc(C3=CC=CN4CCS(=O)(=O)N=C34)cc2)cc1 [Example 168, 9-[4-(4-methylphenoxy)phenyl]-3,4-dihydropyrido[2,1-c][1,2,4]thiadiazine 2,2-dioxide] | – | 248 to 250 |
| CC(F)(F)c1ccc(Oc2ccc(C3CCCN4CCS(=O)(=O)N=C34)cc2)cc1 (stereo not drawn) [Example 170, 9-{4-[4-(1,1-difluoroethyl)phenoxy]phenyl}-3,4,6,7,8,9-hexahydropyrido[2,1-c][1,2,4]thiadiazine 2,2-dioxide] | – | 171 to 172 |
| CCCOc1ccc(C2CCCN3CCS(=O)(=O)N=C23)cc1 (stereo not drawn) [Example 190, 9-(4-propoxyphenyl)-3,4,6,7,8,9-hexahydropyrido[2,1-c][1,2,4]thiadiazine 2,2-dioxide] | – | 169 to 170 |
| O=S1(=O)CCN2C=CC=C(c3ccc(Oc4ccc(C(F)(F)F)cc4)cc3)C2=N1 [Example 200, 9-{4-[4-(trifluoromethyl)phenoxy]phenyl}-3,4-dihydropyrido[2,1-c][1,2,4]thiadiazine 2,2-dioxide] | – | 253 to 255 |
| CCCCOc1ccc(C2=CC=CN3CCS(=O)(=O)N=C23)cc1 [Example 209, 9-(4-butoxyphenyl)-3,4-dihydropyrido[2,1-c][1,2,4]thiadiazine 2,2-dioxide] | – | 230 to 232 |
| O=S1(=O)CCN2CCN[C@@H](c3ccc(Oc4ccccc4)cc3)C2=N1 [Example 212, (9S)-(4-phenoxyphenyl)-3,4,6,7,8,9-hexahydropyrazino[2,1-c][1,2,4]thiadiazine 2,2-dioxide] | – | 124 to 125 |
| O=S1(=O)CCN2CCN[C@H](c3ccc(Oc4ccccc4)cc3)C2=N1 [Example 213, (9R)-9-(4-phenoxyphenyl)-3,4,6,7,8,9-hexahydropyrazino[2,1-c][1,2,4]thiadiazine 2,2-dioxide] | – | 124 to 125 |
| CCc1ccc(Oc2ccc([C@H]3CCCN4CCS(=O)(=O)N=C34)cc2)cc1 [Example 217, (9R)-9-[4-(4-ethylphenoxy)phenyl]-3,4,6,7,8,9-hexahydropyrido[2,1-c][1,2,4]thiadiazine 2,2-dioxide] | – | 152 to 153 |
| O=S1(=O)CCN2CCCC(c3ccc(Oc4ccc(C(F)(F)F)cc4)cc3)C2=N1 (stereo not drawn) [Example 233, 9-{4-[4-(trifluoromethyl)phenoxy]phenyl}-3,4,6,7,8,9-hexahydropyrido[2,1-c][1,2,4]thiadiazine 2,2-dioxide] | – | 177 to 179 |
| O=S1(=O)CCN2CCC[C@@H](c3ccc(Oc4ccc(F)c(Cl)c4)cc3)C2=N1 [Example 457, (9S)-9-[4-(3-chloro-4-fluorophenoxy)phenyl]-3,4,6,7,8,9-hexahydropyrido[2,1-c][1,2,4]thiadiazine 2,2-dioxide] | – | 154 to 156 |
